We go through six compounds from patent US8859557B2, “Substituted oxindole derivatives and their use as vasopressin receptor ligands” (Abbott GmbH & Co. KG, priority 2006, dated 2014).

In series [1] the target is T1, recombinant human oxytocin receptors (Homo sapiens, UniProt P30559).
T1 construct: expressed in transfected cells; host or cells: HEK-293, transient expression; lysed and homogenized cells
T1 sequence (P30559 1-389): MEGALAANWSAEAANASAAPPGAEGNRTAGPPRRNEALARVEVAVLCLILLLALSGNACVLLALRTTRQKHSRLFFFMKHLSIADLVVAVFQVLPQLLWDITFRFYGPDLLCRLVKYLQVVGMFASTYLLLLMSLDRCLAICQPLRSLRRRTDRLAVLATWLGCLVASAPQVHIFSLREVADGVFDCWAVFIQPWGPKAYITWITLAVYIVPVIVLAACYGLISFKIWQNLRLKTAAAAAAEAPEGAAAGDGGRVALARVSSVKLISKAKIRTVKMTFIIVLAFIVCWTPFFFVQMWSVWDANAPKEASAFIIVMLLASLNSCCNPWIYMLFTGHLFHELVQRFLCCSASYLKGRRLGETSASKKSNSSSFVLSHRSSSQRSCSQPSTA
The experiment in a line: Oxytocin receptor binding assay. To be noted: selectivity for V1b over oxytocin receptor, quotient of Ki values. As to the method:
Oxytocin Receptor Binding Assay
Confluent HEK-293 cells with transiently expressing recombinant human oxytocin receptors were centrifuged at 750×g and at room temperature for 5 minutes. The residue was taken up in ice-cold lysis buffer (50 mM Tris-HCl, 10% glycerol, pH 7.4 and Roche Complete Protease Inhibitor) and subjected to an osmotic shock at 4° C. for 20 minutes. The lyzed cells were then centrifuged at 750×g and at 4° C. for 20 minutes, the residue was taken up in incubation buffer, and aliquots of 10^7 cells/ml were prepared. The aliquots were frozen at −80° C. until used.
On the day of the experiment, the cells were thawed, diluted with incubation buffer and homogenized using a Multipette Combitip (Eppendorf, Hamburg). […] The nonspecific binding was determined with 10^−6 M oxytocin (Bachem AG, H2510). Determinations in triplicate were set up. Bound and free radioligand were separated by filtration under vacuum with Whatman GF/B glass fibre filters using a Skatron cell harvester 7000. The bound radioactivity was determined by liquid scintillation measurement in a Tricarb beta counter, model 2000 or 2200CA (Packard).

The target in series [2] is T2, human vasopressin V1b receptor (Homo sapiens, UniProt P47901).
T2 construct: expressed in transfected cells; host or cells: CHO-K1 (cell line hV1b-3H2_CHO), membrane preparation
T2 sequence (P47901 1-424): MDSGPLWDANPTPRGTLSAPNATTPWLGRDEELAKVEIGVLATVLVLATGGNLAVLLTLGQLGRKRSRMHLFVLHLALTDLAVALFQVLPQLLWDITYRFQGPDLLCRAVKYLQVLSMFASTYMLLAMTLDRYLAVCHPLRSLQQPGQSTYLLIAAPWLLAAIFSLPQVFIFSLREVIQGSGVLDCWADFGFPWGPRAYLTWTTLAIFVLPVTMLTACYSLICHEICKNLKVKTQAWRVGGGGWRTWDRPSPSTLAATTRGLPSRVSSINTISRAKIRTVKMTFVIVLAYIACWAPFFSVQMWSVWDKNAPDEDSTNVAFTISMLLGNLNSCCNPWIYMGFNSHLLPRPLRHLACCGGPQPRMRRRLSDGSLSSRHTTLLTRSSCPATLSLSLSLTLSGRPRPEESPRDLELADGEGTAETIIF
Put plainly: Vasopressin V1b receptor binding assay. To be noted: displacement of 3H-AVP, membranes of CHO-K1 cells with human V1b receptor. As to the method: Methods for Determining the Biological Activity Vasopressin V1b Receptor Binding Assay: Substances:
This series of DMSO predilutions was diluted 1:10 with assay buffer. The substance concentration was again diluted 1:5 in the assay mixture (2% DMSO in the mixture).
All determinations were carried out as triplicate determinations.
Background: Loss of bound radioactivity is the signal in a displacement assay; it reports binding, not function.

Series [3] in a line: Determination of the microsomal half-life / microsomal clearance (human). To be noted: pH 7.4; human liver microsomes, 0.5 μM test substance, 0.25 mg microsomal protein/ml; read-out: Human Mikrosomal Clearance. The format is in vitro ADME. As to the method:
The metabolic stability of a compound can be determined, for example, by incubating a solution of this compound with liver microsomes from particular species (for example rat, dog or human) and determining the half-life of the compound under these conditions (RS Obach, Curr Opin Drug Discov Devel. 2001, 4, 36-44). It is possible to conclude from an observed larger half-life that the metabolic stability of the compound is improved. The stability in the presence of human liver microsomes is of particular interest since it makes it possible to predict the metabolic degradation of the compound in the human liver. Compounds with increased metabolic stability (determined in the liver microsome test) are therefore probably also degraded more slowly in the liver. The slower metabolic degradation in the liver can lead to higher and/or longer-lasting concentrations (effective levels) of the compound in the body, so that the elimination half-life of the compounds according to the invention is increased. Increased and/or longer-lasting effective levels may lead to a better efficacy of the compound in the treatment or prophylaxis of various vasopressin-dependent diseases. An improved metabolic stability may additionally lead to an increased bioavailability after oral administration, because the compound is subjected, after being absorbed in the intestine, to less metabolic degradation in the liver (so-called first pass effect). An increased oral bioavailability may, because the concentration (effective level) of the compound is increased, lead to a better efficacy of the compound after oral administration.
Determination of the Microsomal Half-Life:
The metabolic stability of the compounds of the invention was determined in the following assay.
The test substances are incubated in a concentration of 0.5 μM as follows:
0.5 μM test substance is preincubated together with liver microsomes of various species (rat, human or other species) (0.25 mg of microsomal protein/ml) in 0.05M potassium phosphate buffer pH 7.4 in microtitre plates at 37° C. for 5 min. The reaction is started by adding NADPH (1 mg/ml). 50 μl aliquots are taken after 0, 5, 10, 15, 20 and 30 min, and the reaction is stopped immediately with the same volume of acetonitrile and cooled down. The samples are frozen until analyzed. Using MSMS, the remaining concentration of undegraded test substance is determined. From the […] of the test substance signal/time unit curve, the half-life (T½) is determined, where the half-life of the test substance can be calculated, assuming first order kinetics, from the decrease in the concentration of the compound with time. The microsomal clearance (mCl) is calculated as mCl=In2/T½/(content of microsomal protein in mg/ml)×1000 [ml/min/mg] (modified according to the literature references: Di, The Society for Biomoleculaur Screening, 2003, 453-462; Obach, DMD, 1999 vol 27. N 11, 1350-1359).
On the technique in general: Liver microsomes are a subcellular fraction often used to study metabolism.

Series [4] deals with human vasopressin V1a receptor (Homo sapiens, UniProt P37288). The experiment in a line: Vasopressin V1a receptor binding assay. To be noted: selectivity for V1b over V1a, quotient of Ki values.

Some results are limits rather than exact numbers.

Sequence of human vasopressin V1a receptor (P37288 whole entry): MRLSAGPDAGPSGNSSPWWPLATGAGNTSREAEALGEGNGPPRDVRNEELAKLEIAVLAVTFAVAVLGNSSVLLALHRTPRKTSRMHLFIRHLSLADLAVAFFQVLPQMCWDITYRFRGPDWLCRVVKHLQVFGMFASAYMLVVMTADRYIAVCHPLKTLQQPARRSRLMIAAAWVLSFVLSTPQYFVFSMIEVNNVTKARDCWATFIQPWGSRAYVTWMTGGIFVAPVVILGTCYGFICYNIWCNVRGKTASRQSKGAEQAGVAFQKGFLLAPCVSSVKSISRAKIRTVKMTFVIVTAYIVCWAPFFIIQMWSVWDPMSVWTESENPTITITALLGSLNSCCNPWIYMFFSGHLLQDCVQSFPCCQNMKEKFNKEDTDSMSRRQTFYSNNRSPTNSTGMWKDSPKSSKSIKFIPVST

As usually defined, the Ki is the dissociation constant of the complex between target and ligand, obtained from inhibition or displacement. The low end stands for a stronger hold on the target, the high end for a looser hold on the target. Take `CCOc1ncccc1C1(NC(=O)N2CCC(C3CCNCC3)CC2)C(=O)N(S(=O)(=O)c2ccc(OC)cc2OC)c2ccc(C#N)cc21.O=C(O)C(F)(F)F.O=C(O)C(F)(F)F` (racemic) [Example 85, N-[5-Cyano-1-[(2,4-dimethoxyphenyl)sulphonyl]-3-(2-ethoxypyridin-3-yl)-2-oxo-2,3-dihydro-1H-indol-3-yl]-4,4′-bipiperidine-1-carboxamide bis(trifluoroacetate)]: the “Ki(h-OT)/Ki(h-V1b)” value in series [1] was “++ (>25-50)”. Also, in series [2], the Ki was below 0.01 µM. In addition, the microsomal CLint at 0.5 μM in series [3] is 60 to 120 µL/min/mg. Also, the “Ki(h-V1a)/Ki(h-V1b)” value in series [4] was “+++ (>100)”.
The matching figures for `CCOc1ncccc1C1(NC(=O)N2CCN(C3CCN(CC)CC3)CC2)C(=O)N(S(=O)(=O)c2ccc(OC)cc2OC)c2ccc(C#N)cc21.O=C(O)C(F)(F)F` (single isomer, unassigned) [Example 7B, (−)-N-[5-Cyano-1-[(2,4-dimethoxyphenyl)sulphonyl]-3-(2-ethoxypyridin-3-yl)-2-oxo-2,3-dihydro-1H-indol-3-yl]-4-(1-ethylpiperidin-4-yl)piperazine-1-carboxamide trifluoroacetate]: “+++ (>50)”, below 0.01 µM, below 60 µL/min/mg and “+++ (>100)”.
The matching figures for `CCOc1ncccc1C1(NC(=O)N2CCC(N3CCN(C)CC3)CC2)C(=O)N(S(=O)(=O)c2ccc(OC)cc2OC)c2ccc(C#N)cc21` (single isomer, unassigned) [Example 31B, (−)-N-[5-Cyano-1-[(2,4-dimethoxyphenyl)sulphonyl]-3-(2-ethoxypyridin-3-yl)-2-oxo-2,3-dihydro-1H-indol-3-yl]-4-(4-methylpiperazin-1-yl)piperidine-1-carboxamide]: “+++ (>50)”, below 0.01 µM, below 60 µL/min/mg and “+++ (>100)”.
The matching figures for `CCOc1ncccc1C1(NC(=O)N2CCC(N3CCN(CC)CC3)CC2)C(=O)N(S(=O)(=O)c2ccc(OC)cc2OC)c2ccc(C#N)cc21` (single isomer, unassigned) [Example 37B, (−)-N-[5-Cyano-1-[(2,4-dimethoxyphenyl)sulphonyl]-3-(2-ethoxypyridin-3-yl)-2-oxo-2,3-dihydro-1H-indol-3-yl]-4-(4-ethylpiperazin-1-yl)piperidine-1-carboxamide]: “+++ (>50)”, below 0.01 µM, below 60 µL/min/mg and “+++ (>100)”.
With `CCOc1ncccc1C1(NC(=O)N2CCC(N3CCN(CC)CC3)CC2)C(=O)N(S(=O)(=O)c2ccccc2)c2ccc(C#N)cc21` (single isomer, unassigned) [Example 40B, (−)-N-[5-Cyano-3-(2-ethoxypyridin-3-yl)-2-oxo-1-(phenylsulphonyl)-2,3-dihydro-1H-indol-3-yl]-4-(4-ethylpiperazin-1-yl)piperidin-1-carboxamide], in series [1], the “Ki(h-OT)/Ki(h-V1b)” value was “+++ (>50)”. Besides, the Ki in series [2] is below 0.01 µM. In addition, the microsomal CLint at 0.5 μM in series [3] was 60 to 120 µL/min/mg. In addition, the “Ki(h-V1a)/Ki(h-V1b)” value in series [4] is given as “+ (15-50)”.
With `CCOc1ncccc1[C@]1(NC(=O)N2CCN(C3CCN(C)CC3)CC2)C(=O)N(S(=O)(=O)c2ccc(OC)cc2OC)c2ccc(C#N)cc21` [Example 1B, (−)-N-[5-Cyano-1-[(2,4-dimethoxyphenyl)sulphonyl]-3-(2-ethoxypyridin-3-yl)-2-oxo-2,3-dihydro-1H-indol-3-yl]-4-(1-methylpiperidin-4-yl)piperazine-1-carboxamide], the “Ki(h-OT)/Ki(h-V1b)” value in series [1] was “+++ (>50)”. Also, the inhibition constant (Ki) in series [2] is below 0.01 µM. Also, the microsomal CLint at 0.5 μM in series [3] was below 60 µL/min/mg. For the same compound, the “Ki(h-V1a)/Ki(h-V1b)” value in series [4] is “+++ (>100)”.
